Values joined by “and” are separate entries in the source; they are usually repeats but may differ in a detail not shown here. Identical values can stand only once.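 Growth conditions: 96-well plates. Treatment: test compound, 48 hours, 5 concentrations. Analysis: linear interpolation between bracketing concentrations; unreached endpoints set to highest concentration. GI50 is the concentration that inhibits growth by half. The concentration for full growth arrest is given as TGI.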
What was measured:
Experiment in all cases: inhibition of tumour cell growth, NCI panel, 48 h
NCI-H226 lung = tested on: NCI-H226 lung
LOX IMVI melanoma = tested on: LOX IMVI melanoma
SR leukemia = tested on: SR leukemia
NCI-H522 lung = tested on: NCI-H522 lung
EKVX NSCLC = tested on: EKVX NSCLC
RXF 393 renal = tested on: RXF 393 renal
RPMI-8226 leukemia = tested on: RPMI-8226 leukemia
K-562 leukemia = tested on: K-562 leukemia
OVCAR-5 ovarian = tested on: OVCAR-5 ovarian
786-0 renal = tested on: 786-0 renal

Row | Structure (SMILES) | GI50 (NCI-H226 lung) | TGI (NCI-H226 lung) | GI50 (LOX IMVI melanoma) | TGI (LOX IMVI melanoma) | GI50 (SR leukemia) | TGI (SR leukemia) | GI50 (NCI-H522 lung) | TGI (NCI-H522 lung) | GI50 (EKVX NSCLC) | TGI (EKVX NSCLC) | GI50 (RXF 393 renal) | TGI (RXF 393 renal) | GI50 (RPMI-8226 leukemia) | TGI (RPMI-8226 leukemia) | GI50 (K-562 leukemia) | TGI (K-562 leukemia) | GI50 (OVCAR-5 ovarian) | TGI (OVCAR-5 ovarian) | GI50 (786-0 renal) | TGI (786-0 renal)
1 | COC(=O)/C=C/c1cc(OC(C)=O)c2c(c1)C(C(=O)OC)C(c1ccc(OC(C)=O)c(OC(C)=O)c1)O2 (centres undefined) | 3.68 µM | 23.2 µM | 0.0597 µM | > 83.3 µM | 0.0303 µM | 30.4 µM | 0.0654 µM | 11.6 µM | 2.28 µM | > 86 µM | 0.167 µM | 55.2 µM | 0.0574 µM | 5.25 µM | 0.0405 µM | > 100 µM | 3.42 µM | > 100 µM | 0.488 µM | > 56.8 µM
2 | COc1cc2c3c(n(C)c(=O)c2cc1OC)-c1cc2c(cc1C3=O)OCO2 | – | > 100 µM | – | > 73 µM | – | 11.8 µM | – | 34.8 µM | – | > 100 µM | – | > 62.4 µM | – | > 100 µM | – | > 92.2 µM | – | > 100 µM | – | > 77.7 µM
3 | CNc1cc2oc(=O)cc(C)c2cc1C | – | > 100 µM | – | > 100 µM | – | > 100 µM | – | > 100 µM | – | > 100 µM | – | > 100 µM | – | > 100 µM | – | > 100 µM | – | > 100 µM | – | > 100 µM
4 | COc1ccc(-c2c(C#N)c(N3CCOCC3)nc3[nH]c(=S)[nH]c(=S)c23)cc1OC | 18.8 µM | 89.6 µM | 16.7 µM | 60.9 µM | 11.5 µM | > 100 µM | > 100 µM | > 100 µM | > 100 µM | > 100 µM | 62.6 µM | > 100 µM | 9.74 µM | 70.5 µM | 36.7 µM | > 100 µM | > 100 µM | > 100 µM | 30.7 µM | > 100 µM
5 | CCCCCCn1c(-c2ccc(C(=O)O/N=C(\N)c3ccc4c(c3)OCO4)cc2)nc(-c2ccccc2)c1-c1ccccc1 | 3.47 µM | 15.9 µM | 0.173 µM | 0.329 µM | 0.28 µM | 1.43 µM | 1.81 µM | 3.92 µM | 1.76 µM | 3.96 µM | 1.77 µM | 3.88 µM | 1.94 µM | 5.25 µM | 1.92 µM | 5.06 µM | 2.9 µM | 13.8 µM | 1.02 µM | 2.56 µM
6 | CO[C@@H]1CC[C@]2(C)OC[C@H](C)[C@@H]3C[C@@H](C)[C@@H](OC(C)=O)[C@@H]4[C@H]3[C@@H]2O[C@H]4C[C@@]1(C)O | > 100 µM | > 100 µM | > 100 µM | > 100 µM | > 100 µM | > 100 µM | > 100 µM | > 100 µM | > 100 µM | > 100 µM | > 100 µM | > 100 µM | > 100 µM | > 100 µM | > 100 µM | > 100 µM | > 100 µM | > 100 µM | > 100 µM | > 100 µM
7 | NC(=O)c1cc(I)ccc1NC(=O)/C=C/c1ccccc1 | 1.96 µM | 40.3 µM | 3.18 µM | > 100 µM | 0.419 µM | – | 1.07 µM | – | 0.787 µM | > 68.8 µM | 0.989 µM | 22.8 µM | 0.357 µM | 4.96 µM | 0.668 µM | > 100 µM | 3.17 µM | > 51.8 µM | 1.32 µM | > 68.1 µM
8 | Nc1nc(Cl)nc2c1ncn2C1CC(O)C(CO)O1 (centres undefined) | – | 62.5 µM | – | 30.6 µM | 5.66 µM | > 100 µM | – | > 100 µM | – | 34.5 µM | – | > 100 µM | – | > 100 µM | – | > 100 µM | – | > 100 µM | 2.45 µM | > 100 µM
9 | CC12c3ccccc3C(OC=O)(c3ccccc31)C1(C)c3ccccc3C2(OC=O)c2ccccc21 | – | > 100 µM | – | > 100 µM | – | 48.6 µM | – | > 100 µM | – | > 100 µM | – | > 100 µM | – | > 100 µM | – | > 100 µM | – | > 100 µM | – | > 100 µM
10 | CCCCCCCCCCCC[N+]12CC[N+](CCN)(CC1)CC2 | – | > 100 µM | – | > 100 µM | – | 81.7 µM | – | > 100 µM | – | > 100 µM | – | 18.1 µM | – | > 100 µM | – | > 100 µM | – | 38.1 µM | – | > 100 µM
11 | NC(=S)N/N=C/c1ncccc1O | 4.3 µM | 18 µM and 122 µM | 5.29 µM | 98.7 µM and 54.6 µM | 0.585 µM | 28.8 µM and > 148 µM | 2.44 µM and 1.29 µM | > 42.9 µM and 87 µM | 8.58 µM | > 92.8 µM and 28.1 µM | – | 7.82 µM and 42.6 µM | 5.92 µM and 2.07 µM | > 1000 µM | 2.92 µM | > 1000 µM | 5.21 µM | > 82.4 µM and 154 µM | 0.348 µM | 20.3 µM and 8.34 µM
12 | CCCCNCCCNCCCNC(=O)c1csc(-c2csc(CCNC(=O)C(NC(=O)C(C)C(O)C(C)NC(=O)C(NC(=O)c3nc(C(CC(N)=O)NCC(N)C(N)=O)nc(N)c3C)C(OC3OC(CO)C(O)C(O)C3OC3OC(CO)C(O)C(OC(N)=O)C3O)c3cnc[nH]3)C(C)O)n2)n1 (centres undefined) | 0.477 µM | – | 0.194 µM | 7.15 µM and 6.49 µM | 7.28 µM | 50 µM and > 100 µM | – | 7.96 µM and 10.1 µM | > 50 µM | > 50 µM and 61.8 µM | 0.443 µM and 0.171 µM | 2.66 µM and 1.15 µM | 19.7 µM | > 100 µM | 19.6 µM | 50 µM and > 100 µM | 5.86 µM | 50 µM and > 44.5 µM | 1.46 µM | 50 µM and 5.24 µM
13 | COc1c2occc2c(N)c2ccc(=O)oc12 | – | > 100 µM | – | > 100 µM | – | > 100 µM | – | > 100 µM | – | > 100 µM | – | > 100 µM | – | > 100 µM | – | > 100 µM | – | > 100 µM | – | > 100 µM
14 | O=C(Nc1ncc(Cc2cccc(C(F)(F)F)c2)s1)c1ccc2c(c1)OCCO2 | 0.827 µM | – | 0.565 µM | > 100 µM | 0.21 µM | > 100 µM | 0.196 µM | – | 0.602 µM | > 100 µM | 0.232 µM | 0.783 µM | 0.483 µM | > 100 µM | 0.159 µM | > 100 µM | 0.617 µM | > 100 µM | 0.576 µM | > 100 µM
15 | CCOc1ccc(OCC(=O)O)c2c1CCCC2=O | – | > 100 µM | – | > 100 µM | – | > 100 µM | – | > 100 µM | – | > 100 µM | – | > 100 µM | – | > 100 µM | – | – | – | > 100 µM | – | > 100 µM
